| SMILES | CH4 permeability | CO2 permeability | N2 permeability | O2 permeability | H2 permeability |
| --- | --- | --- | --- | --- | --- |
| *c1ccc(C(c2ccc(N3C(=O)c4ccc(-c5ccc6c(c5)C(=O)N(*)C6=O)cc4C3=O)cc2)(C(F)(F)F)C(F)(F)F)cc1 (repeat unit) | 0.611 Barrer | 22.1 Barrer | 0.979 Barrer | 5.22 Barrer | – |
| *C(=C(*)c1ccc2c(c1)Cc1ccccc1-2)c1ccccc1 (repeat unit) | 2400 Barrer | 8500 Barrer | 1300 Barrer | 2150 Barrer | 3650 Barrer |
| *CC[Si](C)(C)c1ccc([Si](*)(C)C)cc1 (repeat unit) | 0.53 Barrer | 4.01 Barrer | 0.257 Barrer | 1.11 Barrer | – |
| */C(C)=C(/*)[Si](C)(C)C (repeat unit) | 15000 Barrer | 28600 Barrer | 6600 Barrer | 9000 Barrer | 15000 Barrer |
| *C(=C(*)c1ccc(C(C)(C)C)cc1)c1ccc(O[Si](C)(C)C(C)(C)C)cc1 (repeat unit) | 540 Barrer | 2300 Barrer | 210 Barrer | 470 Barrer | 1000 Barrer |
| *c1ccc(-c2nnc(-c3cccc(-c4nnc(*)n4-c4ccccc4)c3)n2-c2ccccc2)cc1 (repeat unit) | 0.09 Barrer | 5.2 Barrer | 0.14 Barrer | 1.16 Barrer | – |
| *Oc1cccc(C(C)(C)c2ccc(Oc3ccc(S(=O)(=O)c4ccc(*)cc4)cc3)cc2)c1 (repeat unit) | 0.052 Barrer | 1.5 Barrer | 0.066 Barrer | 0.39 Barrer | 8 Barrer |
| *CC(C#N)(C#N)CC(*)OC(C)=O (repeat unit) | – | – | 0.0138 Barrer | 0.16 Barrer | – |
| *c1ccc(Sc2ccc(N3C(=O)c4ccc(C(c5ccc6c(c5)C(=O)N(*)C6=O)(C(F)(F)F)C(F)(F)F)cc4C3=O)cc2)cc1 (repeat unit) | 0.66 Barrer | 23.1 Barrer | 0.87 Barrer | 4.66 Barrer | – |
| *Oc1c(C)cc(-c2cc(C)c(Oc3ccc(S(=O)(=O)c4ccc(*)cc4)cc3)c(C)c2)cc1C (repeat unit) | 0.925 Barrer | 18.6 Barrer | 0.91 Barrer | 4.55 Barrer | 11.1 Barrer |
| *Cc1ccc(C*)cc1 (repeat unit) | – | 1.3 Barrer | 0.047 Barrer | 0.235 Barrer | 3.2 Barrer |
| *CC(*)(C)C(=O)OCC(F)(F)C(F)(F)C(F)(F)C(F)(F)C(F)(F)C(F)(F)C(F)(F)F (repeat unit) | 14 Barrer | 130 Barrer | 15 Barrer | 30 Barrer | 82 Barrer |
| *Oc1cc2c(cc1O*)C1(CC2(C)C)CC(C)(C)c2cc3c(cc21)Oc1c(c(C(F)(F)F)c(*)c(*)c1S(=O)(=O)c1ccccc1)O3 (repeat unit) | – | 2160 Barrer | 116 Barrer | 434 Barrer | – |
| *c1cc(C(=O)OCCC(F)(F)C(F)(F)C(F)(F)C(F)(F)C(F)(F)C(F)(F)F)cc(N2C(=O)c3ccc(C(c4ccc5c(c4)C(=O)N(*)C5=O)(C(F)(F)F)C(F)(F)F)cc3C2=O)c1 (repeat unit) | 0.44 Barrer | 17.8 Barrer | 0.74 Barrer | 4.74 Barrer | – |
| *Nc1ccc(C(c2ccc(NC(=O)c3cccc(C(*)=O)c3)cc2)(C(F)(F)F)C(F)(F)F)cc1 (repeat unit) | 0.2 Barrer | 9 Barrer | 0.42 Barrer | 2.4 Barrer | 29 Barrer |
| *[Si](C)(C)c1ccc([Si](*)(C)C)cc1 (repeat unit) | – | – | 3.39 Barrer | 14.1 Barrer | – |
| *Nc1ccc(*)cc1OC (repeat unit) | – | 1.06 Barrer | 0.047 Barrer | 0.202 Barrer | 6.04 Barrer |
| *c1cc(C)c(C)c(N2C(=O)c3ccc(Oc4cc(C)c(Oc5ccc6c(c5)C(=O)N(*)C6=O)c(C)c4C)cc3C2=O)c1C (repeat unit) | 4 Barrer | 110 Barrer | 3.8 Barrer | 18 Barrer | 130 Barrer |
| *C(=C(*)c1ccc2c(c1)CCC2)c1ccc([Si](C)(C)C)cc1 (repeat unit) | 470 Barrer | 2000 Barrer | 170 Barrer | 450 Barrer | 1100 Barrer |
| *c1ccc(N(c2ccc(N3C(=O)c4ccc(C(c5ccc6c(c5)C(=O)N(*)C6=O)(C(F)(F)F)C(F)(F)F)cc4C3=O)cc2)c2ccc(N(c3ccccc3)c3ccccc3)cc2)cc1 (repeat unit) | 1.24 Barrer | 11.8 Barrer | 0.45 Barrer | 1.97 Barrer | – |
| *Oc1ccc(S(=O)(=O)c2ccc(Oc3ccc(C(C)(C)c4ccc(*)cc4)cc3CN3C(=O)c4ccccc4C3=O)cc2)cc1 (repeat unit) | 0.08 Barrer | 2.12 Barrer | 0.08 Barrer | 0.54 Barrer | – |

| SMILES | CH4 permeability | CO2 permeability | N2 permeability | O2 permeability | H2 permeability |
| --- | --- | --- | --- | --- | --- |
| *Oc1ccc(Oc2ccc(C(=O)c3ccc(*)cc3)cc2)c(-c2cccc(C)c2)c1 (repeat unit) | 0.024 Barrer | 1 Barrer | 0.029 Barrer | 0.2 Barrer | 3.8 Barrer |
| *c1ccc(Oc2ccc(N3C(=O)c4ccc(Oc5ccc6c(c5)C(=O)N(*)C6=O)cc4C3=O)cc2)cc1 (repeat unit) | – | – | 0.026 Barrer | 0.183 Barrer | 4.77 Barrer |
| *CC(*)OC(=O)c1ccc(C)cc1 (repeat unit) | 0.417 Barrer | 6.73 Barrer | 0.339 Barrer | 1.72 Barrer | – |
| *c1cc(C(=O)OCCC(F)(F)C(F)(F)C(F)(F)C(F)(F)C(F)(F)C(F)(F)F)cc(N2C(=O)c3ccc(C(=O)c4ccc5c(c4)C(=O)N(*)C5=O)cc3C2=O)c1 (repeat unit) | 4.19 Barrer | 75 Barrer | 4.49 Barrer | 19.7 Barrer | – |
| *Oc1ccc(C(C)(C)c2ccc(OC(=O)c3cccc(C(*)=O)c3)c(C(C)C)c2)cc1C(C)C (repeat unit) | 0.305 Barrer | 5.16 Barrer | 0.273 Barrer | 1.64 Barrer | 18.9 Barrer |
| *CC(*)c1ccc([Si](C)(C)C)cc1 (repeat unit) | 34 Barrer | 227 Barrer | 16 Barrer | 56 Barrer | 182 Barrer |
| *c1ccc(Cc2ccc(N3C(=O)c4ccc(-c5ccc6c(c5)C(=O)N(*)C6=O)cc4C3=O)cc2)cc1 (repeat unit) | 0.0532 Barrer | 1.58 Barrer | 0.0221 Barrer | 0.188 Barrer | 6.35 Barrer |
| *Oc1ccc(Oc2ccc(C(=O)c3ccc(*)cc3)cc2)c(-c2cccc(C(F)(F)F)c2)c1 (repeat unit) | 0.041 Barrer | 1.5 Barrer | 0.051 Barrer | 0.38 Barrer | 5.1 Barrer |
| *Oc1ccc(C2(c3ccc(Oc4ccc(S(=O)(=O)c5ccc(*)cc5)cc4)cc3)OC(=O)c3ccccc32)cc1 (repeat unit) | 0.143 Barrer | 5.74 Barrer | 0.17 Barrer | 1.2 Barrer | 10.1 Barrer |
| *c1ccc(Oc2ccc(C3(c4ccc(Oc5ccc(N6C(=O)c7ccc(C(c8ccc9c(c8)C(=O)N(*)C9=O)(C(F)(F)F)C(F)(F)F)cc7C6=O)cc5C(F)(F)F)cc4)c4ccccc4-c4ccccc43)cc2)c(C(F)(F)F)c1 (repeat unit) | 2.43 Barrer | 61.8 Barrer | 5.2 Barrer | 20 Barrer | 151 Barrer |
| *c1c(C)cc2c(c1C)C1c3ccccc3C2c2cc(C)c(-n3c(=O)c4cc5c(=O)n(*)c(=O)c5cc4c3=O)c(C)c21 (repeat unit) | 238 Barrer | 3360 Barrer | 180 Barrer | 680 Barrer | 2380 Barrer |
| *C1C2CC(C1*)C([Si](C)(C)C)C2 (repeat unit) | 1090 Barrer | – | – | 1700 Barrer | 6700 Barrer |
| *Nc1ccc(Oc2c(F)c(F)c(Oc3ccc(NC(=O)CN4C(=O)c5ccc(C(*)=O)cc5C4=O)cc3)c(F)c2F)cc1 (repeat unit) | 0.013 Barrer | 1.27 Barrer | 0.071 Barrer | 0.284 Barrer | – |
| *Oc1ccc(C(C)(c2ccccc2)c2ccc(Oc3ccc(S(=O)(=O)c4ccc(*)cc4)cc3)cc2)cc1 (repeat unit) | 0.32 Barrer | 8.12 Barrer | 0.278 Barrer | 1.56 Barrer | – |
| *OC1OC(OC(C)=O)C(*)C(OC(C)=O)C1OC(C)=O (repeat unit) | 0.2 Barrer | 6.56 Barrer | 0.23 Barrer | 1.46 Barrer | 15.5 Barrer |
| *OC(=O)Oc1ccc(C(=C(Cl)Cl)c2ccc(*)cc2)cc1 (repeat unit) | 0.27 Barrer | 6.5 Barrer | 0.26 Barrer | 1.4 Barrer | 11.3 Barrer |
| *CC(*)OC1C2CC3CC(C2)CC1C3 (repeat unit) | – | 25.2 Barrer | 1.69 Barrer | 6.01 Barrer | – |
| *c1cc2c(cc1O)C1(CC2(C)C)CC(C)(C)c2cc(N3C(=O)C4C(C3=O)C3(Br)C(Br)=C(Br)C4(Br)C4C(=O)N(*)C(=O)C43)c(O)cc21 (repeat unit) | 4.9 Barrer | 138 Barrer | 5.3 Barrer | 31.2 Barrer | 274 Barrer |
| *c1ccc(-c2ccc(Oc3ccc(C4(c5ccc(Oc6ccc(-c7ccc(N8C(=O)c9ccc(C(=O)c%10ccc%11c(c%10)C(=O)N(*)C%11=O)cc9C8=O)cc7)cc6C(F)(F)F)cc5)c5ccccc5C(=O)N4c4ccccc4)cc3)c(C(F)(F)F)c2)cc1 (repeat unit) | 0.62 Barrer | 17.1 Barrer | 0.83 Barrer | 4.33 Barrer | – |
| *OC1OC(COC(=O)NC(C)(C)C)C(*)C(OCC)C1OCC (repeat unit) | 9.45 Barrer | 94.5 Barrer | 4.3 Barrer | 16 Barrer | 73 Barrer |
| *c1ccc(-c2nc3cc(-c4ccc5[nH]c(*)nc5c4)ccc3[nH]2)cc1 (repeat unit) | – | – | – | 0.004 Barrer | 0.16 Barrer |

— a polymer gas permeability compilation
